For 12 compounds, Log 1/M and Cooperativity results are on record in ChEMBL document CHEMBL1135887, “Substituted pentacyclic carbazolones as novel muscarinic allosteric agents: synthesis and structure-affinity and cooperativity relationships” (J Med Chem, 2002).

In test [1] the target is T1, Muscarinic acetylcholine receptor M2 (Homo sapiens) (UniProt P08172).
T1 sequence (whole entry): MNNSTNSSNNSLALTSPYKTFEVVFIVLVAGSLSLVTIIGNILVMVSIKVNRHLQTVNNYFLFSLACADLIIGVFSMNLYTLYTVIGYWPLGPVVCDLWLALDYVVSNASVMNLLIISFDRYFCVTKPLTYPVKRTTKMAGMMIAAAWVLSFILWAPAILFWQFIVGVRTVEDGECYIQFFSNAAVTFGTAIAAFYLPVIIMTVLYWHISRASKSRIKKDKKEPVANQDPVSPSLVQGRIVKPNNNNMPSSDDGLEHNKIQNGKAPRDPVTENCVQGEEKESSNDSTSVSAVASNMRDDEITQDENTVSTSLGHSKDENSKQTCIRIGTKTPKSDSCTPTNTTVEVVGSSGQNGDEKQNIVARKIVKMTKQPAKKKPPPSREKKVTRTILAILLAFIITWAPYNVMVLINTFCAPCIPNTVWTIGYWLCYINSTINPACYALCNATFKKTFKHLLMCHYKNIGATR
The test is described as follows: Logarithm of affinity (log 1/M) at the muscarinic acetylcholine receptor M2 by using semiquantitative equilibrium and off-rate assay.

Test [2] concerns the target T2, Muscarinic acetylcholine receptor M4 (Homo sapiens) (UniProt P08173).
T2 sequence (whole entry): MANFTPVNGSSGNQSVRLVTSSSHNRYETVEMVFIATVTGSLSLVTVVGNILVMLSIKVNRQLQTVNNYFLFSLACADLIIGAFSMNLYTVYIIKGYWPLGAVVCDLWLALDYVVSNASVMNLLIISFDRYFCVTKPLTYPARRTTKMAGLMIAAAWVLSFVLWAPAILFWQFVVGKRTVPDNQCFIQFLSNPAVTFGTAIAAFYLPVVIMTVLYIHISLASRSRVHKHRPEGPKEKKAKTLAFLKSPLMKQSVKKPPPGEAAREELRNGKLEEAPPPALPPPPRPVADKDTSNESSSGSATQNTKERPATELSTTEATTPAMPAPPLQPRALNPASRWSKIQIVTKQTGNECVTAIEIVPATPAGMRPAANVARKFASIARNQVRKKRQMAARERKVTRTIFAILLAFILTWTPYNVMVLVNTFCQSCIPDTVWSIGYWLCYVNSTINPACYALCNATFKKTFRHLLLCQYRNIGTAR
The test is described as follows: Logarithm of affinity (log 1/M) at the (N-methyl Scopolamine) NMS-liganded muscarinic acetylcholine receptor M4 by using semiquantitative equilibrium and off-rate assay.

The target of test [3] is Muscarinic acetylcholine receptor M3 (Homo sapiens) (UniProt P20309). The test is described as follows: Logarithm of affinity (log 1/M) at the (N-methyl Scopolamine) NMS-liganded muscarinic acetylcholine receptor M3 by using semiquantitative equilibrium and off-rate assay.
The target of test [4] is T2, Muscarinic acetylcholine receptor M4 (Homo sapiens). Put plainly: Subtype selectivity and cooperativity with N-methyl Scopolamine (NMS) at Muscarinic acetylcholine receptor M4; Activity range is 1.2-3.
Test [5] has as its target T3, Muscarinic acetylcholine receptor M1 (Homo sapiens) (UniProt P11229).
T3 sequence (whole entry): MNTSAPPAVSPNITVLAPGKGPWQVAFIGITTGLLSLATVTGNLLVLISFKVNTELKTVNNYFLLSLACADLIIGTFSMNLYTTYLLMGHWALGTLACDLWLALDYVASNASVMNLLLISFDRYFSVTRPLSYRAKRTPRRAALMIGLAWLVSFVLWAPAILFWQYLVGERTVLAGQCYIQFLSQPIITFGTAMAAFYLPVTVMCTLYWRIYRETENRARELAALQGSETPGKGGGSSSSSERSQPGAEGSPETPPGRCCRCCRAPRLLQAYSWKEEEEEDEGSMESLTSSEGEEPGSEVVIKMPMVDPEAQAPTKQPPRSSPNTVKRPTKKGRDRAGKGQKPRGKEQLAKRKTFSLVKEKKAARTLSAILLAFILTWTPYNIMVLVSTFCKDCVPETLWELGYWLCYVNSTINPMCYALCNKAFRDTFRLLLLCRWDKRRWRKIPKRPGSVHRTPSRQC
Put plainly: Subtype selectivity and the cooperativity with N-methyl Scopolamine (NMS) at Muscarinic acetylcholine receptor M1; Activity range is 1.2-3.

Test [6] concerns the target Muscarinic acetylcholine receptor M3 (Homo sapiens) (UniProt P20309). Put plainly: Logarithm of affinity (log 1/M) at the muscarinic acetylcholine receptor M3 by using semiquantitative equilibrium and off-rate assay.
Test [7] addresses T1, Muscarinic acetylcholine receptor M2 (Homo sapiens). The test is described as follows: Subtype selectivity and the cooperativity with N-methyl Scopolamine (NMS) at Muscarinic acetylcholine receptor M2; Activity range is 1.2-3.
The target in test [8] is T2, Muscarinic acetylcholine receptor M4 (Homo sapiens). Put plainly: Logarithm of affinity (log 1/M) at the muscarinic acetylcholine receptor M4 by using semiquantitative equilibrium and off-rate assay.
In test [9] the target is T3, Muscarinic acetylcholine receptor M1 (Homo sapiens). The test is described as follows: Logarithm of affinity (log 1/M) at the free muscarinic acetylcholine receptor M1 by using semiquantitative equilibrium and off-rate assay.
Test [10] has the same target. Put plainly: Logarithm of affinity (log 1/M) at the (N-methyl Scopolamine) NMS-liganded muscarinic acetylcholine receptor M1 by using semiquantitative equilibrium and off-rate assay.
Test [11] addresses Muscarinic acetylcholine receptor M3 (Homo sapiens) (UniProt P20309). Put plainly: Subtype selectivity and the cooperativity with N-methyl Scopolamine (NMS) at muscarinic acetylcholine receptor M3; Activity range is 0.2-0.8.
In test [12] the target is T1, Muscarinic acetylcholine receptor M2 (Homo sapiens). Put plainly: Logarithm of affinity (log 1/M) at the (N-methyl Scopolamine) NMS-liganded muscarinic acetylcholine receptor M2 by using semiquantitative equilibrium and off-rate assay.
Test [13] concerns the target T3, Muscarinic acetylcholine receptor M1 (Homo sapiens). Put plainly: Subtype selectivity and the cooperativity with N-methyl Scopolamine (NMS) at Muscarinic acetylcholine receptor M1; Activity range is 0.2-0.8.
Test [14] has as its target T2, Muscarinic acetylcholine receptor M4 (Homo sapiens). Put plainly: Subtype selectivity and the cooperativity with N-methyl Scopolamine (NMS) at Muscarinic acetylcholine receptor M4; Activity range is 0.2-0.8.
For test [15], the target named is T1, Muscarinic acetylcholine receptor M2 (Homo sapiens). The test is described as follows: Subtype selectivity and the cooperativity with N-methyl Scopolamine (NMS) at Muscarinic acetylcholine receptor M2.
Test [16] has as its target T2, Muscarinic acetylcholine receptor M4 (Homo sapiens). Put plainly: Subtype selectivity and the cooperativity with N-methyl Scopolamine (NMS) at Muscarinic acetylcholine receptor M4.
Test [17] addresses Muscarinic acetylcholine receptor M3 (Homo sapiens) (UniProt P20309). The test is described as follows: Subtype selectivity and the cooperativity with N-methyl Scopolamine (NMS) at Muscarinic acetylcholine receptor M3; […].
Test [18] addresses T2, Muscarinic acetylcholine receptor M4 (Homo sapiens). Put plainly: Subtype selectivity and the cooperativity with N-methyl Scopolamine (NMS) at Muscarinic acetylcholine receptor M4; Activity range is 0.81-1.19.

The structures appear in SMILES notation.

Muscarinic acetylcholine receptor M3 (Homo sapiens), sequence (P20309 whole entry, looked up): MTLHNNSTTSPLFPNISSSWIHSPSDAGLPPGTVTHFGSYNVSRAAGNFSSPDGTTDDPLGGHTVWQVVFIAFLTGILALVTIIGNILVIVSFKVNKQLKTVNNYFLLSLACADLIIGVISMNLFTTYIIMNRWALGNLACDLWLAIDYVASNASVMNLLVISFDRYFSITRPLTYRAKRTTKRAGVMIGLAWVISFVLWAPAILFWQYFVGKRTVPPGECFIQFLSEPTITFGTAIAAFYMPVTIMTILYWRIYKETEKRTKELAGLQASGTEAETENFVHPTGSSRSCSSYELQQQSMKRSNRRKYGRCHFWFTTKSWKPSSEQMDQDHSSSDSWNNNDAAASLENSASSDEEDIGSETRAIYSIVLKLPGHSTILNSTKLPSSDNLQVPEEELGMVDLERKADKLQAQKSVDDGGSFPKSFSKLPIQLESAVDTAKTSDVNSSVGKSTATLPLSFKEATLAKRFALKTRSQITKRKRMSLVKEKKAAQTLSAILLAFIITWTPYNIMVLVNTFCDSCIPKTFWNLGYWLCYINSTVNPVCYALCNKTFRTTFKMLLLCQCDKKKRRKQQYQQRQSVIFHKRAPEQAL

In the case of `O=C1CCc2cc3c(c4c5ccccc5n1c24)CCNC3`, the Log 1/M is 5.31 in [1]; 5.37 in test [2]; 4.64 in [3]; 4.88 in test [6]; 4.99 in test [8]; 5.49 in [9]. Besides, the Log 1/M in test [10] and in test [12] was 5.49 in each case. Further, the Cooperativity came out at 3 in test [4], 3 in test [5], 3 in test [7] and 0.8 in test [11].
In the case of `O=C1CCc2cc3c(c4c5cccc(O)c5n1c24)CCNC3`, the Log 1/M in test [1] was 5.36; in [2], 5.25; in [3], 4.37; in test [6], 5.06; in test [8], 5.43; in test [9], 5.49. For the same compound, the Log 1/M in [10] is 5.38; in test [12], 5.67. In addition, the Cooperativity stood at 3 in [7], 0.8 in test [13], 0.8 in [11] and 0.8 in test [14].
With `O=C(O)c1ccc2c(c1)c1c3c(cc4c1n2C(=O)CC4)CNCC3`, the Log 1/M was 5.31 in test [1]; 5.32 in test [2]; 3.94 in [3]; 4.51 in test [6]; 5.39 in test [8]; 5.43 in [9]. In addition, the Log 1/M amounted to 4.57 in [10] and 5.6 in [12]. The Cooperativity was more than 3 in test [15], 0.8 in test [13], 0.8 in test [11] and more than 3 in test [16].
For the compound `O=C1CCc2cc3c(c4c5ccc(O)cc5n1c24)CCNC3`, the Log 1/M in [1] worked out at 5.24; in [2], 5.36; in test [3], 5.29; in test [6], 5.23; in [8] it was 5.38; in test [9], 6.01. The Log 1/M in test [10] was determined as 5.62; in [12] it was 5.34. Further, the Cooperativity worked out at 3 in test [4], 3 in test [7], 0.8 in [13] and 1.19 in test [17].
Take `COC(=O)c1c2c(c3c4cc(OC)c(OC)cc4n4c3c1CCC4=O)CCNC2`: the Log 1/M was determined as 6.22 in test [1]; 5.96 in [2]; 4.9 in test [3]; 5.11 in [6]; 5.86 in [8]; 5.97 in test [9]. In addition, the results for the Log 1/M in test [10] and in test [12] were 6.05 and 6.37, respectively. In addition, the Cooperativity in test [4] turned out to be 3; in [7], 3; in test [13] it was 0.8; in [11], 0.8.
Turning to `COc1cccc2c3c4c(cc5c3n(c12)C(=O)CC5)CNCC4`, the Log 1/M in [1] came out at 5.19; in [2], 5.11; in test [3], 4.75; in [6], 5.06; in test [8] it was 5.97; in test [9], 5.4. The figures for the Log 1/M in test [10] and in [12] were 5.07 and 5.55, respectively. The Cooperativity in test [4] was 3; in test [7] it was 3; in [13], 0.8; in [11], 0.8.
For the compound `O=C1CCc2cc3c(c4c5ccccc5n1c24)CNCC3`, the Log 1/M was 5.51 in [1]; 5.48 in test [2]; 4.69 in [3]; 5.78 in test [6]; 5.31 in [8]; 5.85 in [9]. Further, the Log 1/M in test [10] was 5.7; in [12] it was 5.57. The Cooperativity in test [4] was 3; in test [7] it was 3; in [13], 0.8; in [11] it was 0.8.
With `Cc1ccc2c(c1)c1c3c(cc4c1n2C(=O)CC4)CNCC3`, the Log 1/M in [1] was determined as 6.09; in test [2], 5.97; in test [3], 5.08; in [6], 5.71; in test [8], 6.26; in [9], 5.9. Further, the Log 1/M in test [10] was 5.69; in [12], 6.47. Besides, the Cooperativity in test [4] is 3; in test [7], 3; in test [13] it was 0.8; in test [11], 0.8.
As for `COc1cccc2c1c1c3c(cc4c1n2C(=O)CC4(C)C)CNCC3`, the Log 1/M in [1] came out at 6.21; in test [2], 5.79; in test [3], 4.83; in test [6] it was 4.92; in test [8] it was 5.94; in test [9] it was 6.65. For the same compound, the Log 1/M is 5.54 in [10] and 6.16 in test [12]. The Cooperativity in test [7] worked out at 3; in test [13], 0.8; in [11], 0.8; in [18], 1.19.
Consider `COC(=O)c1cccc2c1c1c3c(cc4c1n2C(=O)CC4)CNCC3`, for which the Log 1/M in test [1] turned out to be 5.5; in [2], 5.58; in [3], 4.78; in test [6], 4.98; in [8] it was 5.6; in test [9], 5.47. In addition, the Log 1/M came out at 5.34 in [10] and 5.82 in test [12]. The Cooperativity in test [7] worked out at 3; in test [13], 0.8; in test [11], 0.8; in [14] it was 0.8.
As for `COc1ccc2c(c1)c1c3c(cc4c1n2C(=O)CC4)CNCC3`, the Log 1/M in test [1] was determined as 5.96; in [2] it was 5.57; in test [3] it was 4.54; in test [6], 5.04; in test [8], 5.6; in test [9], 5.78. In addition, the Log 1/M came out at 5.23 in test [10] and 6.15 in [12]. Also, the Cooperativity in [7] turned out to be 3; in test [13], 0.8; in test [11], 0.8; in [18], 1.19.
As to `O=C1CCc2cc3c(c4c5cc(CN6CCOCC6)ccc5n1c24)CCNC3`, the Log 1/M in test [1] stood at 5.53; in test [2], 5.35; in [3] it was 3.93; in test [6] it was 4.56; in [8] it was 6.12; in test [9] it was 5.47. Also, the Log 1/M came to 5.35 in test [10] and 5.79 in [12]. The Cooperativity in test [7] worked out at 3; in [13] it was 0.8; in test [11], 0.8; in [18] it was 1.19.
